The nature of series [1]: Retention time of the compound by HPLC analysis. It is filed as physicochemical.
Series [2] can be described thus: Binding affinity to biotinylated hairpin DNA (unknown origin) assessed as binding constant by SPR analysis.
In another series the test system is Clupeidae. Kind of series: Binding affinity to Herring sperm DNA assessed as melting temperature by differential scanning calorimetric analysis.

SMILES strings stand for the structures.

As for `CC(C)[C@H]1C(=O)NC[C@@H](NC(=O)c2nc3ccccc3cc2O)C(=O)N2CCCC[C@H]2C(=O)NCC(=O)N(C)CC(=O)N2CCC[C@H]2C(=O)NC[C@@H](NC(=O)c2nc3ccccc3cc2O)C(=O)N2CCCC[C@H]2C(=O)NCC(=O)N(C)CC(=O)N1C`, in series [1], the Retention_time worked out at 15 min. In series [2], the Kd stood at 1.1 µM. In the series with Clupeidae, the Tm is 88 °C.

Take `CN1CC(=O)N2CCCC[C@H]2C(=O)NC[C@@H](NC(=O)c2nc3ccccc3cc2O)C(=O)N2CCCC[C@H]2C(=O)NCC(=O)N(C)CC(=O)N2CCCC[C@H]2C(=O)NC[C@@H](NC(=O)c2nc3ccccc3cc2O)C(=O)N2CCCC[C@H]2C(=O)NCC1=O`: the Retention_time in series [1] worked out at 15.7 min. Besides, the Kd in series [2] worked out at 0.5 µM. Further, in the series on Clupeidae, the Tm was determined as 97 °C.

In turn, `CN1CC(=O)N2CCCCC[C@H]2C(=O)NC[C@@H](NC(=O)c2nc3ccccc3cc2O)C(=O)N2CCCC[C@H]2C(=O)NCC(=O)N(C)CC(=O)N2CCCCC[C@H]2C(=O)NC[C@@H](NC(=O)c2nc3ccccc3cc2O)C(=O)N2CCCC[C@H]2C(=O)NCC1=O` registered a Retention_time in series [1] of 15.8 min. For the same molecule, the Kd in series [2] worked out at 0.77 µM.

As to `CC[C@@H](C)[C@H]1C(=O)NC[C@@H](NC(=O)c2nc3ccc(Br)cc3cc2O)C(=O)N2CCCC[C@H]2C(=O)NCC(=O)N(C)CC(=O)N(C)[C@@H]([C@H](C)CC)C(=O)NC[C@@H](NC(=O)c2nc3ccc(Br)cc3cc2O)C(=O)N2CCCC[C@H]2C(=O)NCC(=O)N(C)CC(=O)N1C`, the Retention_time in series [1] was 21 min.

Turning to `CC(C)[C@H]1C(=O)NC[C@@H](NC(=O)c2nc3ccccc3cc2O)C(=O)N2CCCC[C@H]2C(=O)NCC(=O)N(C)CC(=O)N(C)C(C)(C)C(=O)NC[C@@H](NC(=O)c2nc3ccccc3cc2O)C(=O)N2CCCC[C@H]2C(=O)NCC(=O)N(C)CC(=O)N1C`, the Retention_time in series [1] worked out at 15.8 min. Besides, the Kd in series [2] was 0.7 µM.

In the case of `CC(C)[C@H]1C(=O)O[C@H](C)[C@@H](NC(=O)c2nc3ccccc3cc2O)C(=O)N2CCCC[C@H]2C(=O)NCC(=O)N(C)CC(=O)N(C)[C@@H](C(C)C)C(=O)O[C@H](C)[C@@H](NC(=O)c2nc3ccccc3cc2O)C(=O)N2CCCC[C@H]2C(=O)NCC(=O)N(C)CC(=O)N1C`, the Retention_time in series [1] is recorded as 21.6 min. The Tm in the series on Clupeidae came out at 85 °C.

In series [1], `CC(C)[C@@H]1NC(=O)CN(C)C(=O)CNC(=O)[C@@H]2CCCCN2C(=O)[C@H](NC(=O)c2nc3ccccc3cc2O)CNC(=O)[C@H](C(C)C)NC(=O)CN(C)C(=O)CNC(=O)[C@@H]2CCCCN2C(=O)[C@H](NC(=O)c2nc3ccccc3cc2O)CNC1=O` gave a Retention_time of 14.6 min. Besides, the Kd in series [2] turned out to be 9 µM.

`CCN1CC(=O)N(C)[C@@H](C(C)C)C(=O)NC[C@@H](NC(=O)c2nc3ccccc3cc2O)C(=O)N2CCCC[C@H]2C(=O)NCC(=O)N(CC)CC(=O)N(C)[C@@H](C(C)C)C(=O)NC[C@@H](NC(=O)c2nc3ccccc3cc2O)C(=O)N2CCCC[C@H]2C(=O)NCC1=O`: in series [1], the Retention_time was 18.5 min. Further, in series [2], the Kd stood at 0.3 µM.

With `O=C(N[C@@H]1CNC(=O)[C@@H]2CCCCN2C(=O)COCCNC(=O)[C@@H]2CCCCN2C(=O)[C@H](NC(=O)c2nc3ccccc3cc2O)CNC(=O)[C@@H]2CCCCN2C(=O)COCCNC(=O)[C@@H]2CCCCN2C1=O)c1nc2ccccc2cc1O`, the Retention_time in series [1] came out at 16.1 min. In addition, the Tm with Clupeidae is 68 °C.

In the case of `CC(C)[C@H]1C(=O)N[C@H](C)[C@@H](NC(=O)c2nc3ccccc3cc2O)C(=O)N2CCCC[C@H]2C(=O)NCC(=O)N(C)CC(=O)N(C)[C@@H](C(C)C)C(=O)N[C@H](C)[C@@H](NC(=O)c2nc3ccccc3cc2O)C(=O)N2CCCC[C@H]2C(=O)NCC(=O)N(C)CC(=O)N1C`, in series [1], the Retention_time was 17.6 min. Moreover, in the series with Clupeidae, the Tm amounted to 87 °C.

In series [1], `CC(C)[C@H]1C(=O)NC[C@@H](NC(=O)c2nc3ccccc3cc2O)C(=O)N2CCCC[C@H]2C(=O)NCCOCC(=O)N(C)[C@@H](C(C)C)C(=O)NC[C@@H](NC(=O)c2nc3ccccc3cc2O)C(=O)N2CCCC[C@H]2C(=O)NCCOCC(=O)N1C` returned a Retention_time of 16 min. Further, in the series with Clupeidae, the Tm stood at 68 °C.

As for `CC[C@H](C)[C@H]1C(=O)N[C@H](C)[C@@H](NC(=O)c2nc3ccccc3cc2O)C(=O)N2CCCC[C@H]2C(=O)NCC(=O)N(C)CC(=O)N(C)[C@@H]([C@@H](C)CC)C(=O)N[C@H](C)[C@@H](NC(=O)c2nc3ccccc3cc2O)C(=O)N2CCCC[C@H]2C(=O)NCC(=O)N(C)CC(=O)N1C`, in series [1], the Retention_time was 20.9 min. The Tm in the series with Clupeidae came to 85 °C.

In series [1], `CC(C)[C@H]1C(=O)NC[C@@H](NC(=O)c2nc3ccccc3cc2O)C(=O)N2CCCC[C@H]2C(=O)NCC(=O)N(C)CC(=O)N(C)[C@@H](c2ccccc2)C(=O)NC[C@@H](NC(=O)c2nc3ccccc3cc2O)C(=O)N2CCCC[C@H]2C(=O)NCC(=O)N(C)CC(=O)N1C` yielded a Retention_time of 17.2 min. Besides, in series [2], the Kd stood at 1 µM.

Take `CC[C@H](C)[C@H]1COC[C@@H](NC(=O)c2nc3ccccc3cc2O)C(=O)N2CCCC[C@H]2C(=O)NCC(=O)N(C)CC(=O)N(C)[C@@H](C(C)C)C(=O)NC[C@@H](NC(=O)c2nc3ccccc3cc2O)C(=O)N2CCCC[C@H]2C(=O)NCC(=O)N(C)CC(=O)N1C`: the Retention_time in series [1] was 19.4 min. Further, in series [2], the Kd was determined as 0.05 µM.

`CC[C@H](C)[C@H]1C(=O)NC[C@@H](NC(=O)c2nc3ccccc3cc2O)C(=O)N2CCCC[C@H]2C(=O)NCC(=O)N(C)CC(=O)N(C)[C@@H](C(C)C)C(=O)NC[C@@H](NC(=O)c2nc3ccccc3cc2O)C(=O)N2CCCC[C@H]2C(=O)NCC(=O)N(C)CC(=O)N1C` displayed a Retention_time in series [1] of 18 min. In series [2], the Kd was 0.2 µM. The Tm with Clupeidae was 89 °C.

With `CC(C)[C@H]1C(=O)NC[C@@H](NC(=O)c2nc3ccccc3cc2O)C(=O)N2CCCC[C@H]2C(=O)NCC(=O)N(C)CC(=O)N2CCCC[C@H]2C(=O)NC[C@@H](NC(=O)c2nc3ccccc3cc2O)C(=O)N2CCCC[C@H]2C(=O)NCC(=O)N(C)CC(=O)N1C`, the Retention_time in series [1] was 16.4 min. The equilibrium dissociation constant (Kd) in series [2] was determined as 0.57 µM. Further, the Tm in the series on Clupeidae was determined as 92 °C.

In series [1], `CN1CC(=O)N2CCCC[C@H]2COC[C@@H](NC(=O)c2nc3ccccc3cc2O)C(=O)N2CCCC[C@H]2C(=O)NCC(=O)N(C)CC(=O)N2CCCC[C@H]2C(=O)NC[C@@H](NC(=O)c2nc3ccccc3cc2O)C(=O)N2CCCC[C@H]2C(=O)NCC1=O` gave a Retention_time of 16.6 min. In addition, the Kd in series [2] worked out at 0.95 µM. In the series with Clupeidae, the Tm came out at 94 °C.

In series [1], `CC(C)[C@H]1C(=O)N(C)C[C@@H](NC(=O)c2nc3ccccc3cc2O)C(=O)N2CCCC[C@H]2C(=O)NCC(=O)N(C)CC(=O)N(C)[C@@H](C(C)C)C(=O)N(C)C[C@@H](NC(=O)c2nc3ccccc3cc2O)C(=O)N2CCCC[C@H]2C(=O)NCC(=O)N(C)CC(=O)N1C` yielded a Retention_time of 17.7 min. Moreover, in the series on Clupeidae, the Tm was 88 °C.

Regarding `CC(C)[C@H]1C(=O)NC[C@@H](NC(=O)c2nc3ccccc3cc2O)C(=O)N2CCCC[C@H]2C(=O)NCC(=O)N(C)CC(=O)N(C)C2(CCC2)C(=O)NC[C@@H](NC(=O)c2nc3ccccc3cc2O)C(=O)N2CCCC[C@H]2C(=O)NCC(=O)N(C)CC(=O)N1C`, the Retention_time in series [1] came to 17 min. For the same molecule, in series [2], the Kd was 0.3 µM.

In turn, `CC(C)[C@H]1C(=O)NC[C@@H](NC(=O)c2nc3ccccc3cc2O)C(=O)N2CCCC[C@H]2C(=O)NCC(=O)N(C)CC(=O)N(C)[C@@H]([C@@H](C)O)C(=O)NC[C@@H](NC(=O)c2nc3ccccc3cc2O)C(=O)N2CCCC[C@H]2C(=O)NCC(=O)N(C)CC(=O)N1C` yielded a Retention_time in series [1] of 10.6 min. The Tm with Clupeidae turned out to be 86 °C.

`CC(C)[C@H]1COC[C@@H](NC(=O)c2nc3ccccc3cc2O)C(=O)N2CCCC[C@H]2C(=O)NCC(=O)N(C)CC(=O)N(C)[C@@H](C(C)C)C(=O)OC[C@@H](NC(=O)c2nc3ccccc3cc2O)C(=O)N2CCCC[C@H]2C(=O)NCC(=O)N(C)CC(=O)N1C` gave a Retention_time in series [1] of 20.2 min. Further, the Kd in series [2] is 0.3 µM. Moreover, the Tm in the series with Clupeidae was found to be 96 °C.

As to `CC(C)[C@H]1C(=O)NC[C@@H](NC(=O)c2nc3ccccc3cc2O)C(=O)N2CCCC[C@H]2C(=O)NCC(=O)N(C)CC(=O)N(C)C2(CC2)C(=O)NC[C@@H](NC(=O)c2nc3ccccc3cc2O)C(=O)N2CCCC[C@H]2C(=O)NCC(=O)N(C)CC(=O)N1C`, the Retention_time in series [1] is given as 15.4 min. Also, the Kd in series [2] was 0.7 µM.

As for `CC[C@H](C)[C@H]1C(=O)NC[C@@H](NC(=O)c2nc3ccccc3cc2O)C(=O)N2CCCC[C@H]2C(=O)NCC(=O)N(C)CC(=O)N(C)[C@@H]([C@@H](C)CC)C(=O)NC[C@@H](NC(=O)c2nc3ccccc3cc2O)C(=O)N2CCCC[C@H]2C(=O)NCC(=O)N(C)CC(=O)N1C`, the Retention_time in series [1] stood at 18.8 min. Further, the Kd in series [2] was 0.4 µM. Further, in the series on Clupeidae, the Tm amounted to 91 °C.

In the case of `CC(C)[C@H]1COC[C@@H](NC(=O)c2nc3ccccc3cc2O)C(=O)N2CCCC[C@H]2C(=O)NCC(=O)N(C)CC(=O)N(C)[C@@H](C(C)C)COC[C@@H](NC(=O)c2nc3ccccc3cc2O)C(=O)N2CCCC[C@H]2C(=O)NCC(=O)N(C)CC(=O)N1C`, the Retention_time in series [1] was found to be 18.2 min. Besides, the Tm in the series with Clupeidae is 91 °C.

`CCN1C(=O)CN(C)C(=O)CNC(=O)[C@@H]2CCCCN2C(=O)[C@H](NC(=O)c2nc3ccccc3cc2O)CNC(=O)[C@H](C(C)C)N(CC)C(=O)CN(C)C(=O)CNC(=O)[C@@H]2CCCCN2C(=O)[C@H](NC(=O)c2nc3ccccc3cc2O)CNC(=O)[C@@H]1C(C)C`: the Retention_time in series [1] stood at 17.9 min. Moreover, the Kd in series [2] came out at 0.5 µM.

In turn, `C[C@H]1NC(=O)[C@@H]2CCCCN2C(=O)CN(C)C(=O)CNC(=O)[C@@H]2CCCCN2C(=O)[C@H](NC(=O)c2nc3ccccc3cc2O)[C@@H](C)NC(=O)[C@@H]2CCCCN2C(=O)CN(C)C(=O)CNC(=O)[C@@H]2CCCCN2C(=O)[C@@H]1NC(=O)c1nc2ccccc2cc1O` came in with a Retention_time in series [1] of 16.7 min. For the same molecule, in series [2], the Kd was found to be 0.009 µM.

In series [1], `CC(C)[C@H]1C(=O)NC[C@@H](NC(=O)c2nc3ccccc3cc2O)C(=O)N2CCCC[C@H]2C(=O)NCC(=O)N(C)CC(=O)N(C)[C@@H]([C@H](C)OC(C)(C)C)C(=O)NC[C@@H](NC(=O)c2nc3ccccc3cc2O)C(=O)N2CCCC[C@H]2C(=O)NCC(=O)N(C)CC(=O)N1C` yielded a Retention_time of 18.4 min. Also, in the series on Clupeidae, the Tm stood at 88 °C.

(Values after ChEMBL document CHEMBL5338828, “Structure-Activity Relationships of Bis-Intercalating Peptides and Their Application as Antibody-Drug Conjugate Payloads” (J Med Chem, 2023).)
